Assay results reported in patent US10118916B2, “Modulators of cystic fibrosis transmembrane conductance regulator protein” (AbbVie S.à.r.l., priority 2016, dated 2018).

Biological target: T1, F508delCFTR (Homo sapiens, UniProt P13569, DEL508-508)
T1 construct: expressed in transfected cells; host or cells: CFBE41o- (human lung derived epithelial cell line), doxycycline-inducible
Experiment: Cell Surface Expression-Horse Radish Peroxidase (CSE-HRP) assay
Assay type: cell-based
Conditions: CFBE41o-F508delCFTR-HRP cells; for EC50: F508delCFTR cell surface expression, luminescence, 18-24 hours at 33° C., highest concentration 20 μM; for Maximum % activity: maximum at any tested concentration, normalized to on-plate positive control (3 μM)
Excerpt: Cell Surface Expression-Horse Radish Peroxidase (CSE-HRP) Assay:
A cellular assay for measuring the F508delCFTR cell surface expression after correction with test compounds was developed in human lung derived epithelial cell line (CFBE41o-) (Veit G et al, (2012) Mol Biol Cell. 23(21): 4188-4202). This was achieved by expressing the F508delCFTR mutation along with a horseradish peroxidase (HRP) in the fourth exofacial loop and then measuring the HRP activity using luminescence readout from these cells, CFBE41o-F508delCFTR-HRP, that were incubated overnight with the test corrector compounds. Briefly, for this primary assay, the CFBE41o-F508delCFTR-HRP cells were plated in 384-well plates (Greiner Bio-one; Cat 781080) at 4,000 cells/well along with 0.5 μg/mL doxycycline to induce the F508delCFTR-HRP expression and further incubated at 37° C., 5% CO2 for 72 hours. The test compounds were then added at the required concentrations and further incubated for 18-24 hours at 33° C. The highest concentration tested was 20 μM with an 8-point concentration response curve using a 3-fold dilution. Three replicate plates were run to determine one EC50. All plates contained negative controls (dimethyl sulfoxide, DMSO) and positive controls (3 μM of 3-[(2R,4R)-4-({[1-(2,2-difluoro-1,3-benzodioxol-5-yl)cyclopropyl]carbonyl}amino)-7-methoxy-3,4-dihydro-2H-chromen-2-yl]benzoic acid) as well as on-plate concentration response of the positive control. Post incubation, the plates were washed 5× times with Dulbecco's phosphate buffered saline (DPBS), followed by the addition of the HRP substrate, luminol (50 μL), and measuring the HRP activity using luminescence readout on EnVision® Multilabel Plate Reader (Perkin Elmer; product number 2104-0010). The raw counts from the experiment are analyzed using Accelrys® Assay Explorer v3.3.
Z′ greater than 0.5 was used as passing quality control criteria for the plates.
The Z′ is defined as: 1−[3*SDPositive Control+3*SDNegative Control/Absolute(MeanPositive Control−MeanNegative Control)] wherein “SD” is standard deviation.
The % activity measured at each of the 8 test concentrations of the test compound was normalized to the on-plate positive control using the following formula: % activity=[(test compound response−DMSO response)/(positive control response−DMSO response)]*100
The maximum % activity achieved for the test compound at any tested concentration is presented in Table 1 along with the EC50 calculated using the following general sigmoidal curve with variable Hill slope equation (described as Model 42 in the Accelrys® Assay Explorer v3.3 software): y=(a−d)/(1+(x/c)^b)+d
General sigmoidal curve with concentration, response, top, bottom, EC50 and Hill slope.
This model describes a sigmoidal curve with an adjustable baseline, a. The equation can be used to fit curves where response is either increasing or decreasing with respect to the independent variable, “x”. • “x” is a concentration of drug under test. • “y” is the response. • “a” is the maximum response, and “d” is the minimum response • “c” is the inflection point (EC50) for the curve. That is, “y” is halfway between the lower and upper asymptotes when x=c. • “b” is the slope-factor or Hill coefficient. The sign of b is positive when the response increases with increasing dose and is negative when the response decreases with increasing dose (inhibition).

T1 sequence (P13569 with tags, fused parts or gaps DEL508-508): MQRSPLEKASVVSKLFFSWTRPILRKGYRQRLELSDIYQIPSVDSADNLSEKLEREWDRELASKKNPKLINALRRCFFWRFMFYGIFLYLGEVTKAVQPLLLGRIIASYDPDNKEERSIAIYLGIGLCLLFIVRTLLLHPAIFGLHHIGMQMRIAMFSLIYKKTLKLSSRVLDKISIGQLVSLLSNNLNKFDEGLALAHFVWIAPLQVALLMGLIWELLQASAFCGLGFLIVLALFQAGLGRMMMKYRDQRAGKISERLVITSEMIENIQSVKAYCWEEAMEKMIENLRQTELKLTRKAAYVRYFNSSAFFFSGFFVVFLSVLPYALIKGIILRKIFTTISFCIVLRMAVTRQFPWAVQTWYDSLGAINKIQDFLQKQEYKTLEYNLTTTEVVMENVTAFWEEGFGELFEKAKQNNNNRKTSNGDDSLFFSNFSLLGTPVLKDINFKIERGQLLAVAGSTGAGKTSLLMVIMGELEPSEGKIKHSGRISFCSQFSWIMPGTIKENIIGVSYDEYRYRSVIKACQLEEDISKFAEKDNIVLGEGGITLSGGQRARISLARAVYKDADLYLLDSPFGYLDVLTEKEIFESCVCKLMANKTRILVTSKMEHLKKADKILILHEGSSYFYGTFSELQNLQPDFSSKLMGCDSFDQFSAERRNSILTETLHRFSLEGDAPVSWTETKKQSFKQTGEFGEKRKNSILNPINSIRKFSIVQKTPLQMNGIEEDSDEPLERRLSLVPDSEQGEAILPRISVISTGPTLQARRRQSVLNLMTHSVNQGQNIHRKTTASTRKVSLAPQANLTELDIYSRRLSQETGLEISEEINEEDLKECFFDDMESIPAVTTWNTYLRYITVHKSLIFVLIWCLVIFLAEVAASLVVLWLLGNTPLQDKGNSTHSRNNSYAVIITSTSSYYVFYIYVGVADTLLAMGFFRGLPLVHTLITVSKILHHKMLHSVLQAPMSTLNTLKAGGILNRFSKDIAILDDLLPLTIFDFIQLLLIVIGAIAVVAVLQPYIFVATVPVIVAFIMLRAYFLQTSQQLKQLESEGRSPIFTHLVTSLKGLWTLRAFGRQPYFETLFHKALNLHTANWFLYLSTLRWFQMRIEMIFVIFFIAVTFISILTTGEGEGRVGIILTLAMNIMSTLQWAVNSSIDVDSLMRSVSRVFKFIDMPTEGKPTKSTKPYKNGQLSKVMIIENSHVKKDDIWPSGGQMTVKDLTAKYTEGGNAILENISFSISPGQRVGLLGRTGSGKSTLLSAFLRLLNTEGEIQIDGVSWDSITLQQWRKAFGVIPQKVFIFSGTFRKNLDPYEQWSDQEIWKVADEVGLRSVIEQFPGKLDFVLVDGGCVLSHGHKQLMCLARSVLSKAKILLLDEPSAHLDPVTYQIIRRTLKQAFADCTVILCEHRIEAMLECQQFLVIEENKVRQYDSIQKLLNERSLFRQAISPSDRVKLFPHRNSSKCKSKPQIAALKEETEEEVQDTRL

Row | SMILES | EC50 | Maximum % activity
1 | COc1ccc2c(c1)OC(c1ccc(OC)c(OC)c1)CC2NC(=O)C1(c2ccc(F)cc2)CC1 (stereo not drawn) [Example 20, N-[2-(3,4-dimethoxyphenyl)-7-methoxy-3,4-dihydro-2H-1-benzopyran-4-yl]-1-(4-fluorophenyl)cyclopropane-1-carb oxamide] | 890 nM | 51.1%
2 | COc1ccc2c(c1)OC(c1ccc(OC)c(OC)c1)CC2NC(=O)C1(c2ccc(Cl)cc2)CC1 (stereo not drawn) [Example 21, 1-(4-chlorophenyl)-N-[2-(3,4-dimethoxyphenyl)-7-methoxy-3,4-dihydro-2H-1-benzopyran-4-yl]cyclopropane-1-carboxamide] | 1140 nM | 77.8%
3 | COc1ccc2c(c1)OC(c1ccc(OC)c(OC)c1)CC2NC(=O)C(C)(C)c1ccc(Cl)cc1 (stereo not drawn) [Example 22, 2-(4-chlorophenyl)-N-[2-(3,4-dimethoxyphenyl)-7-methoxy-3,4-dihydro-2H-1-benzopyran-4-yl]-2-methylpropanamide] | 990 nM | 56.6%
4 | C[C@@]1(C(=O)N[C@@H]2C[C@H](c3cccc(C(=O)O)c3)Oc3ccccc32)Cc2cc(Cl)ccc2O1 [Example 27, 3-[(2R,4R)-4-{[(2S)-5-chloro-2-methyl-2,3-dihydro-1-benzofuran-2-carbonyl]amino}-3,4-dihydro-2H-1-benzopyran-2-yl]benzoic acid] | > 20000 nM | 7.9%
5 | COC(=O)c1cccc([C@H]2C[C@@H](NC(=O)[C@@]3(C)CCc4cc(OC)ccc43)c3ccccc3O2)c1 [Example 30, methyl 3-[(2R,4R)-4-{[(1S)-5-methoxy-1-methyl-2,3-dihydro-1H-indene-1-carbonyl]amino}-3,4-dihydro-2H-1-benzopyran-2-yl]benzoate] | 960 nM | 48.4%
6 | COC(=O)c1cccc([C@H]2C[C@@H](NC(=O)[C@@]3(C)CCc4cc(OC)ccc43)c3ccc(OC)cc3O2)c1 [Example 31, methyl 3-[(2R,4R)-7-methoxy-4-{[(1S)-5-methoxy-1-methyl-2,3-dihydro-1H-indene-1-carbonyl]amino}-3,4-dihydro-2H-1-benzopyran-2-yl]benzoate] | 400 nM | 63.6%
7 | COc1ccc2c(c1)CC[C@@]2(C)C(=O)N[C@@H]1C[C@H](c2cccc(C(=O)O)c2)Oc2ccccc21 [Example 32, 3-[(2R,4R)-4-{[(1R)-5-methoxy-1-methyl-2,3-dihydro-1H-indene-1-carbonyl]amino}-3,4-dihydro-2H-1-benzopyran-2-yl]benzoic acid] | 1210 nM | 20.4%
8 | COc1ccc2c(c1)CC[C@@]2(C)C(=O)N[C@@H]1C[C@H](c2cccc(C(=O)O)c2)Oc2cc(OC)ccc21 [Example 33, 3-[(2R,4R)-7-methoxy-4-{[(1R)-5-methoxy-1-methyl-2,3-dihydro-1H-indene-1-carbonyl]amino}-3,4-dihydro-2H-1-benzopyran-2-yl]benzoic acid] | 270 nM | 25.9%
9 | COc1ccc2c(c1)CC[C@]2(C)C(=O)N[C@@H]1C[C@H](c2cccc(C(=O)O)c2)Oc2ccccc21 [Example 34, 3-[(2R,4R)-4-{[(1S)-5-methoxy-1-methyl-2,3-dihydro-1H-indene-1-carbonyl]amino}-3,4-dihydro-2H-1-benzopyran-2-yl]benzoic acid] | 410 nM | 52.6%
10 | COc1ccc2c(c1)O[C@@H](c1cccc(C(=O)O)c1)C[C@H]2NC(=O)C(C)(C)c1ccc2c(c1)OCCO2 [Example 39, 3-{(2R,4R)-4-[2-(2,3-dihydro-1,4-benzodioxin-6-yl)-2-methylpropanamido]-7-methoxy-3,4-dihydro-2H-1-benzopyran-2-yl}benzoic acid] | 870 nM | 41.7%
11 | COc1ccc2c(c1)O[C@@H](c1cccc(C(=O)O)c1)C[C@H]2NC(=O)C(C)(C)c1ccc(OC(F)(F)F)cc1 [Example 40, 3-[(2R,4R)-7-methoxy-4-{2-methyl-2-[4-(trifluoromethoxy)phenyl]propanamido}-3,4-dihydro-2H-1-benzopyran-2-yl]benzoic acid] | 1700 nM | 81.0%
12 | COc1ccc2c(c1)O[C@@H](c1cccc(C(=O)O)c1)C[C@H]2NC(=O)C1(c2ccc(OC(F)(F)F)cc2)CC1 [Example 41, 3-[(2R,4R)-7-methoxy-4-({1-[4-(trifluoromethoxy)phenyl]cyclopropane-1-carbonyl}amino)-3,4-dihydro-2H-1-benzopyran-2-yl]benzoic acid] | 1670 nM | 62.2%

The next lines start with the values.

Row | EC50 | Maximum % activity | SMILES
13 | 230 nM | 54.0% | COc1ccc(C(C)(C)C(=O)NC2CC(c3ccc(OC)c(OC)c3)Oc3cc(OC)ccc32)cc1 (stereo not drawn) [Example 23, N-[2-(3,4-dimethoxyphenyl)-7-methoxy-3,4-dihydro-2H-1-benzopyran-4-yl]-2-(4-methoxyphenyl)-2-methylpropanamide]
14 | 1160 nM | 38.3% | COc1ccc(C(C)(C)C(=O)N[C@H]2C[C@H](c3cccc(C(=O)O)c3)Oc3cc(OC)ccc32)cc1 [Example 24, 3-{(2R,4S)-7-methoxy-4-[2-(4-methoxyphenyl)-2-methylpropanamido]-3,4-dihydro-2H-1-benzopyran-2-yl}benzoic acid]
15 | 230 nM | 39.5% | COc1ccc(C(C)(C)C(=O)N[C@@H]2C[C@H](c3cccc(C(=O)O)c3)Oc3cc(OC)ccc32)cc1 [Example 25, 3-{(2R,4R)-7-methoxy-4-[2-(4-methoxyphenyl)-2-methylpropanamido]-3,4-dihydro-2H-1-benzopyran-2-yl}benzoic acid]
16 | > 20000 nM | 1.6% | C[C@]1(C(=O)N[C@@H]2C[C@H](c3cccc(C(=O)O)c3)Oc3ccccc32)Cc2cc(Cl)ccc2O1 [Example 26, 3-[(2R,4R)-4-{[(2R)-5-chloro-2-methyl-2,3-dihydro-1-benzofuran-2-carbonyl]amino}-3,4-dihydro-2H-1-benzopyran-2-yl]benzoic acid]
17 | 2490 nM | 21.2% | COC(=O)c1cccc([C@H]2C[C@@H](NC(=O)[C@]3(C)CCc4cc(OC)ccc43)c3ccccc3O2)c1 [Example 28, methyl 3-[(2R,4R)-4-{[(1R)-5-methoxy-1-methyl-2,3-dihydro-1H-indene-1-carbonyl]amino}-3,4-dihydro-2H-1-benzopyran-2-yl]benzoate]
18 | 1440 nM | 37.8% | COC(=O)c1cccc([C@H]2C[C@@H](NC(=O)[C@]3(C)CCc4cc(OC)ccc43)c3ccc(OC)cc3O2)c1 [Example 29, methyl 3-[(2R,4R)-7-methoxy-4-{[(1R)-5-methoxy-1-methyl-2,3-dihydro-1H-indene-1-carbonyl]amino}-3,4-dihydro-2H-1-benzopyran-2-yl]benzoate]
19 | 200 nM | 57.5% | COc1ccc2c(c1)CC[C@]2(C)C(=O)N[C@@H]1C[C@H](c2cccc(C(=O)O)c2)Oc2cc(OC)ccc21 [Example 35, 3-[(2R,4R)-7-methoxy-4-{[(1S)-5-methoxy-1-methyl-2,3-dihydro-1H-indene-1-carbonyl]amino}-3,4-dihydro-2H-1-benzopyran-2-yl]benzoic acid]
20 | 670 nM | 31.4% | COc1ccc2c(c1)O[C@@H](c1cccc(C(=O)O)c1)C[C@H]2NC(=O)C1(C)CCc2cc(Cl)ccc21 (stereo partly drawn) [Example 36, 3-{(2R,4R)-4-[(5-chloro-1-methyl-2,3-dihydro-1H-indene-1-carbonyl)amino]-7-methoxy-3,4-dihydro-2H-1-benzopyran-2-yl}benzoic acid]
21 | > 20000 nM | 6.1% | COc1ccc2c(c1)O[C@@H](c1cccc(C(=O)O)c1)C[C@H]2NC(=O)C(C)(C)c1ccc(OCC(C)C)cc1 [Example 37, 3-[(2R,4R)-7-methoxy-4-{2-methyl-2-[4-(2-methylpropoxy)phenyl]propanamido}-3,4-dihydro-2H-1-benzopyran-2-yl]benzoic acid]
